The source of these data is US20260283977A1, “ADIPOCYTE GROWTH INHIBITOR” (WATANABE OYSTER LABORATORY CO., LTD., priority 2023, published 2026).

One assay has as its system phosphorylated MAPK. Put plainly: Western blotting, phosphorylated MAPK level in 3T3-L1 adipocytes. Type of assay: cell-based, mouse. The conditions noted are these: DHMBA 10 μM, day 2 to 4 of differentiation; FIG. 7. The protocol: (§1) 3T3-L1 preadipocytes (1×10^6 cells/100 mm dish used, in 10 ml of culture fluid) were cultured for three days, at which point they reached sub-confluence, in DMEM containing 10% BCS and 1% P/S. Then, the cells were cultured for two days in a DMEM differentiation culture fluid containing 10% FBS, 1% P/S, 0.5 mM IBMX, and 1 μM dexamethasone. […] After the culture, the culture dish was washed three times with cold PBS (10 ml) to eliminate floating cells and dead cells, and adhering cells were scraped using a cell lysis solution containing protease and protein phosphatase inhibitors (Roche Diagnostics, Indianapolis, IN, USA). Next, the cell lysates were centrifuged for 10 minutes at 17,000×g at 4° C. The concentration of proteins in the supernatant was quantified using Bio-Rad Protein Assay Dye (Bio-Rad Laboratories, Inc., Hercules, CA, USA) with bovine serum albumin as a standard. The extracted protein samples were stored at −80° C. until they were used. […]
(§2) After the incubation, the PVDF membrane was incubated at room temperature for 60 minutes in a horseradish peroxidase-conjugated secondary antibody (Santa Cruz Biotechnology, Inc., mouse sc-2005 or rabbit sc-2305; 1:1,000 dilution). Protein bands transferred to the PVDF membrane were detected on an X-ray film using a chemiluminescent substrate (catalog No. 34577, Thermo Scientific, Rockford, IL, USA). […]

In the next assay the test system is PPARγ. Kind of assay: Western blotting, PPARγ level in 3T3-L1 adipocytes. Type of assay: cell-based, mouse. The conditions noted are these: DHMBA 10 μM, day 2 to 4 of differentiation; FIG. 7. The protocol:
as §1, §2

The next assay has as its system NF-κB p65. Put plainly: Western blotting, NF-κB p65 level in 3T3-L1 adipocytes. Type of assay: cell-based, mouse. The conditions noted are these: DHMBA 10 μM, day 2 to 4 of differentiation; FIG. 7. The protocol: as §1, §2
Another assay relates to 3T3-L1 preadipocytes. Put plainly: Cell proliferation of 3T3-L1 preadipocytes (living cell count). The format is cell-based, mouse. As for the experimental part: […] Furthermore, in an experiment to measure cell proliferation, 3T3-L1 preadipocytes (1×10^5/ml per well of a 24-well plate) were cultured for three days in a culture fluid containing a vehicle (1% ethanol as the final concentration) or DHMBA (0.1, 1, 10, 100, or 1000 μM).
After the culture, adhering cells were separated from each well by adding an aseptic solution containing 0.05% trypsin and EDTA (0.1 ml per well) in PBS (Thermo Fisher Scientific, Waltham, MA, USA) not containing Ca^2+/Mg^2+ and incubating the cells for two minutes. Afterward, 0.9 ml of DMEM containing 10% FBS was added to each well to prepare cell suspensions. In order to measure the number of living cells, a medium (0.1 ml) containing suspension cells was mixed with 0.1 ml of 0.5% trypan blue staining solution. The living cells were counted under a microscope (Olympus MTV-3) using a cell counter (Line Seiki H-102P, Tokyo, Japan) and a hemocytometer (Sigma-Aldrich, St. Louis, Missouri). Two counts were averaged in each measurement. The number of cells was shown as the number per well of a culture plate.

The next assay deals with mTOR. Put plainly: Western blotting, mTOR level in 3T3-L1 adipocytes. The format is cell-based, mouse. To be noted: DHMBA 10 μM, day 2 to 4 of differentiation; FIG. 7. The protocol:
as §1, §2

A further assay relates to PI3 kinase 100α. Put plainly: Western blotting, PI3 kinase 100α level in 3T3-L1 adipocytes. The format is cell-based, mouse. The conditions noted are these: DHMBA 10 μM, day 2 to 4 of differentiation; FIG. 7. The protocol: as §1, §2
The test system of the next assay is MAPK. Kind of assay: Western blotting, MAPK level in 3T3-L1 adipocytes. The format is cell-based, mouse. The conditions noted are these: DHMBA 10 μM, day 2 to 4 of differentiation; FIG. 7. As for the experimental part:
as §1, §2

The test system of assay [1] is metastatic prostate cancer cells. To be noted: earlier report, no details given; cited from earlier work.
A further assay concerns C/EBPα. Kind of assay: Western blotting, C/EBPα level in 3T3-L1 adipocytes. The format is cell-based, mouse. To be noted: DHMBA 10 μM, day 2 to 4 of differentiation; FIG. 7. The protocol:
as §1, §2

The next assay deals with Akt. Kind of assay: Western blotting, Akt level in 3T3-L1 adipocytes. The format is cell-based, mouse. The conditions noted are these: DHMBA 10 μM, day 2 to 4 of differentiation; FIG. 7. The protocol:
as §1, §2

On to `COc1c(O)cc(CO)cc1O` [DHMBA, 3,5-dihydroxy-4-methoxybenzyl alcohol], for which the “Phosphorylated MAPK protein level” value with phosphorylated MAPK was “reduction”. For the same compound, the PPARγ protein level entry in the assay on PPARγ is listed as “reduced”. Besides, in the assay on NF-κB p65, the “NF-κB p65 protein level” value is listed as “reduced”. For the same compound, the “Cell proliferation (number of cells), time course” value in the assay on 3T3-L1 preadipocytes (DHMBA 10 μM, cultured one to five days, effect at three to five days, FIG. 2A) is given as “suppressed”. Also, the “Cell proliferation (number of cells), concentration dependence” value in the assay on 3T3-L1 preadipocytes (cultured three days, DHMBA 0.1, 1, 10, 100 or 1000 μM, FIG. 2B) was “suppressed at concentrations ranging from 1 μM to 1000 μM”. Further, in the assay on mTOR, the mTOR protein level entry is recorded as “reduction”. Also, the “PI3 kinase 100α protein level” value in the assay on PI3 kinase 100α is given as “reduction”. The MAPK protein level entry in the assay on MAPK is recorded as “reduction”. The “Proliferation of metastatic prostate cancer cells” value in assay [1] was “suppress the proliferation”. For the same compound, the C/EBPα protein level entry with C/EBPα was “reduced”. For the same compound, the Akt protein level entry with Akt is recorded as “reduction”.
